This note sets out measurements from ChEMBL document CHEMBL1165922, “Vitamin D receptor agonist/histone deacetylase inhibitor molecular hybrids” (Bioorg Med Chem, 2010).

Format in all cases: organism-based
What all share (conditions): in vivo, other

The test system of data set [1] is Mus musculus. Briefly: Toxicity in FVB mouse assessed as calcium level in blood at 24 pmol/day administered via osmotic pump for 6 to 7 days measured on day 4 by microchemistry (RVb = 2.11 mmol/L).
In data set [2] the test system is Mus musculus. Briefly: Toxicity in FVB mouse assessed as calcium level in blood at 12 pmol/day administered via osmotic pump for 6 to 7 days measured on day 6 by microchemistry (RVb = 2 mmol/L).
Data set [3] has as its system Mus musculus. Briefly: Toxicity in FVB mouse assessed as calcium level in blood at 12 pmol/day administered via osmotic pump for 6 to 7 days measured on day 3 by microchemistry (RVb = 2.24 mmol/L).
Data set [4] deals with Mus musculus. Description: Toxicity in FVB mouse assessed as calcium level in blood at 24 pmol/day administered via osmotic pump for 6 to 7 days measured on day 6 by microchemistry (RVb = 2 mmol/L).
Data set [5] concerns Mus musculus. Description: Toxicity in FVB mouse assessed as calcium level in blood at 12 pmol/day administered via osmotic pump for 6 to 7 days measured on day 4 by microchemistry (RVb = 2.11 mmol/L).
Data set [6] relates to Mus musculus. Briefly: Toxicity in FVB mouse assessed as calcium level in blood at 48 pmol/day administered via osmotic pump for 6 to 7 days measured on day 6 by microchemistry (RVb = 2 mmol/L).
In data set [7] the test system is Mus musculus. Briefly: Toxicity in FVB mouse assessed as calcium level in blood at 12 pmol/day administered via osmotic pump for 6 to 7 days measured on day 7 by microchemistry (RVb = […] mmol/L).
For data set [8], the system named is Mus musculus. Description: Toxicity in FVB mouse assessed as calcium level in blood at 48 pmol/day administered via osmotic pump for 6 to 7 days measured on day 3 by microchemistry (RVb = 2.24 mmol/L).
For data set [9], the system named is Mus musculus. Briefly: Toxicity in FVB mouse assessed as calcium level in blood at 24 pmol/day administered via osmotic pump for 6 to 7 days measured on day 7 by microchemistry (RVb = […] mmol/L).
In data set [10] the test system is Mus musculus. Description: Toxicity in FVB mouse assessed as calcium level in blood at 24 pmol/day administered via osmotic pump for 6 to 7 days measured on day 3 by microchemistry (RVb = 2.24 mmol/L).

Consider `C=C1/C(=C\C=C2/CCC[C@]3(C)[C@@H]([C@H](C)CCCC(C)(C)O)CC[C@@H]23)C[C@@H](O)C[C@@H]1O` [CALCITRIOL], for which the Activity in the data set with Mus musculus [1] is recorded as 2.97 mmol/L; in the data set with Mus musculus [2], 2.03 mmol/L; in the data set with Mus musculus [3], 2.05 mmol/L; with Mus musculus [4], 4.43 mmol/L; in the data set on Mus musculus [5] it was 2.59 mmol/L; in the data set on Mus musculus [6], “Toxic”. Moreover, the Activity in the data set with Mus musculus [7] is on record as 2.62 mmol/L; in the data set with Mus musculus [8], 3.07 mmol/L; in the data set on Mus musculus [9], 3.21 mmol/L; in the data set on Mus musculus [10], 3.15 mmol/L.
